Experiments:
full-length LRRK2 G2019S = biological target: T1, full-length LRRK2 G2019S (Homo sapiens, UniProt Q5S007, G2019S); assay: LRRK2-G2019S kinase activity assay (Lanthascreen TR-FRET); format: biochemical; conditions: 1.1 mM ATP
T1 construct: DYKDDDDK (FLAG)
Procedure: (§1) The potency of compounds was evaluated in vitro using the Lanthascreen® technology (ThermoFisher Scientific).
(§2) In a typical experiment, the reaction assay buffer contains 50 mM Tris pH8.2, 1 mM EGTA, 2.5 mM MgCl2, 0.05% Triton X100, 0.15% BSA and 1 mM DTT. The detection of the assay is performed using 1 nM Terbium labeled anti-phospho-LRRKtide (ThermoFisher Scientific) diluted in a TR-FRET buffer (ThermoFisher Scientific).
(§3) The experimental procedure was performed with Greiner small volume® 384-well. […] The working solution of compounds was prepared in a separate Greiner microplate.
(§4) The kinase reaction was initiated by addition of the ATP/LRRKtide substrate mix diluted in the reaction assay buffer. The reaction mix was incubated for at least 10 minutes at room temperature (initial velocity conditions). Reaction was stopped by addition of Terbium labeled anti-phospho-LRRKtide diluted into the detection buffer supplemented with EDTA (ThermoFisher Scientific). Plates are incubated for at least 30 minutes at room temperature and read on an Envision™ multimode plate reader (PerkinElmer) with LanthaScreen™. The TR-FRET 520:495 nm emission ratio was calculated and used to determine the IC50 value from a dose response curve fit to the 4-parameter logistic equation. The activity with respect to LRRK2 kinase in this test is given by the concentration which inhibits 50% of the LRRK2 activity (or IC50) in nM.

[1] = biological target: T2, full-length LRRK2 wild type (Homo sapiens, UniProt Q5S007); assay: LRRK2 WT assay (Assay A, Lanthascreen TR-FRET, 500 uM ATP); format: biochemical; conditions: Assay A (values without *)
T2 construct: DYDDDDK tagged full-length LRRK2 wild type is used
Procedure: as §1, §2, §3, §4

T1 sequence (Q5S007 whole entry G2019S): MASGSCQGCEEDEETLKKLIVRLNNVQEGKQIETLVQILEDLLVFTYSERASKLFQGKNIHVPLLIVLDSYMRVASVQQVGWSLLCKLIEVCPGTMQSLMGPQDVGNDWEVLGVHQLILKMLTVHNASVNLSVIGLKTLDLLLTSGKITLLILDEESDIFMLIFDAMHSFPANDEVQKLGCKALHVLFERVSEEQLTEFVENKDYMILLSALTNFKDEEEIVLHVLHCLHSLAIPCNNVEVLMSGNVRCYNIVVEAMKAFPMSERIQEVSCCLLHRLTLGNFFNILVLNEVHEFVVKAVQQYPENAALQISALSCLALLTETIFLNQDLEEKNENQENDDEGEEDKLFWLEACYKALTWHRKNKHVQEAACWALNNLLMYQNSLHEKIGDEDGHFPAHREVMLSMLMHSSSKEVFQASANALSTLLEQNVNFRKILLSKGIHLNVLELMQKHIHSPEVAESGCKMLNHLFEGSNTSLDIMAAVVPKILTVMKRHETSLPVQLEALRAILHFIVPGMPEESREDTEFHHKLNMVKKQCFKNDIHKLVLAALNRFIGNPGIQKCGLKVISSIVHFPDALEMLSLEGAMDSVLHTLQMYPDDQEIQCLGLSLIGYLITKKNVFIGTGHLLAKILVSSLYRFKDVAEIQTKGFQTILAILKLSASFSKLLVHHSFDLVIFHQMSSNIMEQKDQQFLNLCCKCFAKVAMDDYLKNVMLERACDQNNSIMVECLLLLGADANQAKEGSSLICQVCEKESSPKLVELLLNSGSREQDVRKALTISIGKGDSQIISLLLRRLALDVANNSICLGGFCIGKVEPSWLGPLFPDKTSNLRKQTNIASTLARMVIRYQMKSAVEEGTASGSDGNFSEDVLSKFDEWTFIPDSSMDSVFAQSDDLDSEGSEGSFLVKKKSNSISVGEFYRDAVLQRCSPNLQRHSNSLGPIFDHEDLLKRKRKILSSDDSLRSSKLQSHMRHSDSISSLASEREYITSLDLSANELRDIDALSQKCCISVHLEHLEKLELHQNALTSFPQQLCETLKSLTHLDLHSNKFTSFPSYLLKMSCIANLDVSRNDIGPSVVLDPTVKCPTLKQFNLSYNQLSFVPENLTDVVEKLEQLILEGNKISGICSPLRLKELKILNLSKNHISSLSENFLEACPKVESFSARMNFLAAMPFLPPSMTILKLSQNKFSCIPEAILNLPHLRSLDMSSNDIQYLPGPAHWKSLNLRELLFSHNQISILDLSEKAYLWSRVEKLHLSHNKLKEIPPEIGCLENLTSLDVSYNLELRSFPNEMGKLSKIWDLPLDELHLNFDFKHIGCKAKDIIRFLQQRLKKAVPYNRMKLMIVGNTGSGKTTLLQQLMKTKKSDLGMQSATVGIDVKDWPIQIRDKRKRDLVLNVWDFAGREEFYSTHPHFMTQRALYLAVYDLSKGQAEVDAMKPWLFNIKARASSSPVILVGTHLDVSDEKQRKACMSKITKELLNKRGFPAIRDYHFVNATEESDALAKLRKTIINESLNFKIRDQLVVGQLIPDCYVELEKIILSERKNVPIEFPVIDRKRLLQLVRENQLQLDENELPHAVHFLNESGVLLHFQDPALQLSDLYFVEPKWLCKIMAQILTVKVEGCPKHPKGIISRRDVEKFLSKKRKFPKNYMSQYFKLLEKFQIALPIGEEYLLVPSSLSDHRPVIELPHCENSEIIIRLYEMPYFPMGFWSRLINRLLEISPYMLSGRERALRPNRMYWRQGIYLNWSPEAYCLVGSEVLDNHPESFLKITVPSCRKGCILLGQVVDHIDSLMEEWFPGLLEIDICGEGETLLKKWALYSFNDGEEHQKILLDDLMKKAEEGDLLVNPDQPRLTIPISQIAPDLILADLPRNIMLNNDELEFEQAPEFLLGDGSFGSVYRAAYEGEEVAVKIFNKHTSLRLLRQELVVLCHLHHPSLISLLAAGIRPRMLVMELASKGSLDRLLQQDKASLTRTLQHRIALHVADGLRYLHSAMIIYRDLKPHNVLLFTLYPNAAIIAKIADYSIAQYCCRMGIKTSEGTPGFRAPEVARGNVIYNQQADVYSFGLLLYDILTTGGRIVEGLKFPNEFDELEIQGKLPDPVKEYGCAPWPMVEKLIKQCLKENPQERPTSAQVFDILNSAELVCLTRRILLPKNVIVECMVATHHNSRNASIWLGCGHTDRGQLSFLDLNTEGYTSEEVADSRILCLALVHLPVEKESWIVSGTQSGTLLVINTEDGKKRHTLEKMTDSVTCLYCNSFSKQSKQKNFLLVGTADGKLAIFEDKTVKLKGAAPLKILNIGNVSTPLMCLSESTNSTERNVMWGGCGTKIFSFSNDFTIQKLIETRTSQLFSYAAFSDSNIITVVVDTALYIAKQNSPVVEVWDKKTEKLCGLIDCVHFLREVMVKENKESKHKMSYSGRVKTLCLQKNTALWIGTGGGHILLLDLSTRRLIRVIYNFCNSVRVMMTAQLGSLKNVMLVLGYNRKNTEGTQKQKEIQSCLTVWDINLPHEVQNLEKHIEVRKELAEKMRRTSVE
T2 sequence (Q5S007 whole entry): as the sequence (Q5S007 whole entry G2019S) above, with S2019G counted along it

| Structure (SMILES) | IC50 (full-length LRRK2 G2019S) | IC50 [1] |
| --- | --- | --- |
| [2H]C([2H])([2H])n1cc(Nc2ncc3cc(C#N)n([C@H]4COC[C@@H]4C)c3n2)c(O[C@@H]2COC[C@H]2O)n1 (single isomer, unassigned) [Example 115] | 17 nM | 14 nM |
| CC(Oc1nn(C2COC2)cc1Nc1ncc2cc(C#N)n([C@H]3COC[C@@H]3C)c2n1)C(F)(F)F (single isomer, unassigned) [Example 10] | 1 nM | 1 nM |
| COC[C@H](C)n1c(C#N)cc2cnc(Nc3cn(CS(C)(=O)=O)nc3OC3COC3)nc21 [Example 93, 7-[(1S)-2-Methoxy-1-methyl-ethyl]-2-[[1-(methylsulfonylmethyl)-3-(oxetan-3-yloxy)pyrazol-4-yl]amino]pyrrolo[2,3-d]pyrimidine-6-carbonitrile] | 4 nM | 8 nM |
| COC[C@H](C)n1c(C#N)cc2cnc(Nc3cn(CCO)nc3OC3COC3)nc21 [Example 139, (S)-2-((1-(2-hydroxyethyl)-3-(oxetan-3-yloxy)-1 H-pyrazol-4-yl)amino)-7-(1-methoxypropan-2-yl)-7H-pyrrolo[2,3-d]pyrimidine-6-carbonitrile] | 20 nM | 22 nM |
| [2H]C([2H])([2H])n1cc(Nc2ncc3cc(C#N)n([C@@H](C)COC)c3n2)c(OC2CC(O)C2(C)C)n1 (stereo partly drawn) [Example 108, 2-((3-(3-hydroxy-2,2-dimethylcyclobutoxy)-1-(methyl-d3)-1H-pyrazol-4-yl)amino)-7-((S)-1-methoxypropan-2-yl)-7H-pyrrolo[2,3-d]pyrimidine-6-carbonitrile] | 10 nM | 10 nM |
| CC(C)Oc1nn(C(C)(C)C#N)cc1Nc1ncc2cc(C#N)n([C@H]3COC[C@@H]3C)c2n1 [Example 29, 2-((1-(2-Cyanopropan-2-yl)-3-isopropoxy-1H-pyrazol-4-yl)amino)-7-((3R,4R)-4-methyltetrahydrofuran-3-yl)-7H-pyrrolo[2,3-d]pyrimidine-6-carbonitrile] | 1 nM | 1 nM |
| [2H]C([2H])([2H])n1cc(Nc2ncc3cc(C#N)n([C@@H](C)COC)c3n2)c(OC2COC2)n1 [Example 91, 7-[(2S)-1-Methoxypropan-2-yl]-2-[[3-(oxetan-3-yloxy)-1-(methyl-d3)pyrazol-4-yl]amino]pyrrolo[2,3-d]pyrimidine-6-carbonitrile] | 7 nM | 13 nM |
| [2H]C([2H])([2H])n1cc(Nc2ncc3cc(C#N)n([C@@H](C)COC)c3n2)c(O[C@@H]2COC[C@H]2O)n1 (single isomer, unassigned) [Example 117] | 50 nM | 34 nM |
| C[C@H]1COC[C@@H]1n1c(C#N)cc2cnc(Nc3cn(CS(C)(=O)=O)nc3OC3COC3)nc21 [Example 14, 2-[[1-(Methylsulfonylmethyl)-3-(oxetan-3-yloxy)pyrazol-4-yl]amino]-7-[(3R,4R)-4-methyltetrahydrofuran-3-yl]pyrrolo[2,3-d]pyrimidine-6-carbonitrile] | 2 nM | 2 nM |
| [2H]C([2H])([2H])n1cc(Nc2ncc3cc(C#N)n([C@@H](C)COC)c3n2)c(OC2C(C)(C)C(O)C2(C)C)n1 (single isomer, unassigned) [Example 132] | 32 nM | 36 nM |
| [2H]C([2H])([2H])n1cc(Nc2ncc3cc(C#N)n([C@@H](C)COC)c3n2)c(OC2COC2(C)C)n1 (single isomer, unassigned) [Example 100] | 39 nM | 40 nM |
| CC(C)Oc1nn(C)cc1Nc1ncc2cc(C#N)n([C@@H]3CO[C@H]3C)c2n1 (single isomer, unassigned) [Example 79, 7-[(trans)-2-methyloxetan-3-yl]-2-[(1-methyl-3-propan-2-yloxypyrazol-4-yl)amino]pyrrolo[2,3-d]pyrimidine-6-carbonitrile] | 6 nM | 9 nM |
| CC(C)Oc1nn(C)cc1Nc1ncc2cc(C#N)n([C@H]3COC[C@@H]3C)c2n1 [Example 26, 2-((3-Isopropoxy-1-methyl-1H-pyrazol-4-yl)amino)-7-((3R,4R)-4-methyltetrahydrofuran-3-yl)-7H-pyrrolo[2,3-d]pyrimidine-6-carbonitrile] | 1 nM | 1 nM |
| C[C@H]1COC[C@@H]1n1c(C#N)cc2cnc(Nc3cn(CS(C)(=O)=O)nc3OC3CC3)nc21 [Example 36, 2-((3-Cyclopropoxy-1-((methylsulfonyl)methyl)-1H-pyrazol-4-yl)amino)-7-((3R,4R)-4-methyltetrahydrofuran-3-yl)-7H-pyrrolo[2,3-d]pyrimidine-6-carbonitrile] | 1 nM | 1 nM |
| C[C@@H]1OC[C@H]1Oc1nn(C)cc1Nc1ncc2cc(C#N)n([C@H]3COC[C@@H]3C)c2n1 (single isomer, unassigned) [Example 6] | 4 nM | 5 nM |
| C[C@H]1COC[C@@H]1n1c(C#N)cc2cnc(Nc3cn(C)nc3OCC(C)(C)O)nc21 [Example 32, 2-((3-(2-Hydroxy-2-methylpropoxy)-1-methyl-1H-pyrazol-4-yl)amino)-7-((3R,4R)-4-methyltetrahydrofuran-3-yl)-7H-pyrrolo[2,3-d]pyrimidine-6-carbonitrile] | 7 nM | 7 nM |
| [2H]C([2H])([2H])n1cc(Nc2ncc3cc(C#N)n([C@H]4COC[C@@H]4C)c3n2)c(OC2CCOC2)n1 (single isomer, unassigned) [Example 111] | 22 nM | 17 nM |
| CC(C(F)F)n1cc(Nc2ncc3cc(C#N)n([C@H]4COC[C@@H]4C)c3n2)c(OC2CC2)n1 (mixture of isomers) [Example 43, 2-((3-cyclopropoxy-1-(1,1-difluoropropan-2-yl)-1H-pyrazol-4-yl)amino)-7-((3R,4R)-4-methyltetrahydrofuran-3-yl)-7H-pyrrolo[2,3-d]pyrimidine-6-carbonitrile] | 1 nM | 2 nM |
| [2H]C([2H])([2H])n1cc(Nc2ncc3cc(C#N)n([C@@H](C)COC)c3n2)c(OC2CCOC2)n1 (single isomer, unassigned) [Example 102] | 41 nM | 39 nM |
| [2H]C([2H])([2H])n1cc(Nc2ncc3cc(C#N)n([C@H]4COC[C@@H]4C)c3n2)c(OC2CC2)n1 [Example 28, 2-((3-Cyclopropoxy-1-(methyl-d3)-1H-pyrazol-4-yl)amino)-7-((3R,4R)-4-methyltetrahydrofuran-3-yl)-7H-pyrrolo[2,3-d]pyrimidine-6-carbonitrile] | 3 nM | 3 nM |
| C[C@H]1COC[C@@H]1n1c(C#N)cc2cnc(Nc3cn(C4CC4)nc3OC3COC3)nc21 [Example 37, 2-((1-Cyclopropyl-3-(oxetan-3-yloxy)-1H-pyrazol-4-yl)amino)-7-((3R,4R)-4-methyltetrahydrofuran-3-yl)-7H-pyrrolo[2,3-d]pyrimidine-6-carbonitrile] | 6 nM | 8 nM |
| [2H]C([2H])([2H])n1cc(Nc2ncc3cc(C#N)n([C@H]4COC[C@@H]4C)c3n2)c(OC2COC(C)(C)C2)n1 (single isomer, unassigned) [Example 109] | 38 nM | 26 nM |
| CO[C@@H]1COC[C@H]1n1c(C#N)cc2cnc(Nc3ccc(C(C)(C)O)cc3OC3COC3)nc21 (racemic) [Example 71, 2-((4-(2-hydroxypropan-2-yl)-2-(oxetan-3-yloxy)phenyl)amino)-7-((trans)-4-methoxytetrahydrofuran-3-yl)-7H-pyrrolo[2,3-d]pyrimidine-6-carbonitrile] | 69 nM | 109 nM |
